Legend:
[1] = system: S. aureus; experiment: RIND XXIX reduction solution assay, Δ fluorescence; assay type: cell-based, Staphylococcus aureus; details: S. aureus (gram +) about 5×10^7 cells/ml, tyrocidin 3.3 mg/ml, 37° C.
Method: (§1) Bacterial suspensions were prepared by growing the cells in BHT broth to stationary phase overnight at 37° C. P. auruginosa was grown with agitation. About 40 ml of each overnight culture was centrifuged, decanted and washed once with 0.05 molar potassium phosphate buffer or 0.05 molar N-2-hydroxy-ethylpiperazine-N'-2-ethanesulfonic acid (HEPES) buffer, pH 7.8, and resuspended in buffer.
(§2) Dispersions containing RIND compounds were prepared by dissolving the RIND compound in N,N-dimethylformamide (DMF) at 16 mg compound per ml of solvent. An aliquot (250 μl) of the resulting solution was added to 500 μl of TRITON X-100 surfactant. This mixture was then added dropwise with stirring to 25 ml of 0.05 molar HEPES buffer. A dispersion of RIND XXIX was prepared similarly except that DMF was acidified with 0.1% sulfuric acid. […]
(§3) The solutions were incubated at 37° C. for 30 minutes, and the change in fluorescence emission (Δ fluorescence) was determined as the difference between the readings taken when the solutions were first mixed and then after 30 minutes incubation. Measurements were made in a commercially available MICROFLUOR Reader (available from Dynatech Laboratories, Alexandria, Virginia, U.S.A.), modified with an excitation filter at 540 nm, an emission filter at 620 nm and a Xenon lamp.

[2] = system: P. vulgaris; experiment: MTT reduction solution assay, ΔOD 540 nm; assay type: cell-based, Proteus vulgaris; details: P. vulgaris (-) 5×10^7, tyrocidin 0.825 mg/ml, 37° C.
Method: (§4) These examples illustrate the differentiation of bacteria using a tetrazolium salt and phenolic dye as the reducible compounds and two cyclic polypeptide antibiotics according to the present invention. The tetrazolium salt was 3-(4,5-dimethyl-2-thiazolyl) -2,5-diphenyl-2H-tetrazolium bromide (MTT) which forms a colored formazan dye when reduced. The phenolic dye was 2,6-dichloroindophenol (DCIP) which forms a colorless species when reduced.
(§5) Solutions of the reducible compounds were prepared with the following: HEPES buffer (3 ml, 0.05 molar, pH 7.5), TRITON X-100 nonionic surfactant (1% concentration), glucose (50 μl of 10% in water), tryptose (50 μl of a 10% solution in water), MTT (25 μl of 5 mg/ml methanol) or DCIP (25 μl of 3 mg/ml methanol) and phenazine methosultate ETA (25 μl of 3 mg/ml methanol).
(§6) Test solutions were prepared from the following: reducible compound solution from above (200 μl), 50 μl of either gramicidin S solution (6 mg/ml methanol and 9 ml of buffer) or tyrocidin solution (100 mg/ml methanol and 8 ml of buffer) and 50 μl of cell suspension. […] The change in optical density (ΔOD) was determined after 30 minutes at 37° C. at 540 nm for the MTT assay and at 620 nm for the DCIP assay using a commercially available spectrophotometer.

[3] = system: E. coli; experiment: DCIP reduction solution assay, ΔOD 620 nm; assay type: cell-based, Escherichia coli; details: E. coli (-) 5×10^7, tyrocidin 0.825 mg/ml, 37° C.
Method: as §4, §5, §6

[4] = system: E. coli; experiment: RIND XXIX reduction solution assay, Δ fluorescence; assay type: cell-based, Escherichia coli; details: E. coli (gram -) about 5×10^7 cells/ml, tyrocidin 3.3 mg/ml, 37° C.
Method: as §1
(§7) Dispersions containing RIND compounds were prepared by dissolving the RIND compound in N,N-dimethylformamide (DMF) at 16 mg compound per ml of solvent. An aliquot (250 μl) of the resulting solution was added to 500 μl of TRITON X-100 surfactant. This mixture was then added dropwise with stirring to 25 ml of 0.05 molar HEPES buffer. A dispersion of RIND XXIX was prepared similarly except that DMF was acidified with 0.1% sulfuric acid. Compositions containing water-compatible RIND compounds were prepared as described above except the surfactant was omitted.
(§8) Each test solution contained the following: dispersion of RIND XXIX (25 μl) prepared as described above, glucose (400 μl of 10% aqueous solution), tryptose (400 μl of 10% aqueous solution), trimethyl-1,4-benzoquinone ETA (500 μl of 1.5 mg/ml methanol). Aliquots (200 μl) of the mixture were mixed with solutions of the antibiotics (50 μl). The cell suspensions (50 μl) were then added. The final concentration of gramcidin S and tyrocidin were 0.1 mg/ml and 3.3 mg/ml, respectively. The final cell concentration was about 5×10^7 cells/ml. Cell control solutions contained all reagents except antibiotics. Background controls consisted of both buffer and solution controls. […]
as §3, with “lamp. […]” for “lamp.”

[5] = system: K. pneumoniae; experiment: RIND XXIX reduction solution assay, Δ fluorescence; assay type: cell-based, Klebsiella pneumoniae; details: K. pneumoniae (gram -) about 5×10^7 cells/ml, tyrocidin 3.3 mg/ml, 37° C.
Method: as §1, §7, §8
as §3, with “lamp. […]” for “lamp.”

[6] = system: P. aeruginosa; experiment: DCIP reduction solution assay, ΔOD 620 nm; assay type: cell-based, Pseudomonas aeruginosa; details: P. aeruginosa (-) 5×10^7, tyrocidin 0.825 mg/ml, 37° C.
Method: as §4, §5, §6

[7] = system: E. cloacae; experiment: MTT reduction solution assay, ΔOD 540 nm; assay type: cell-based, Enterobacter cloacae; details: E. cloacae (-) 5×10^7, tyrocidin 0.825 mg/ml, 37° C.
Method: as §4, §5, §6

[8] = system: S. aureus; experiment: MTT reduction solution assay, ΔOD 540 nm; assay type: cell-based, Staphylococcus aureus; details: S. aureus (+) 5×10^7, tyrocidin 0.825 mg/ml, 37° C.
Method: as §4, §5, §6

[9] = system: P. vulgaris; experiment: DCIP reduction solution assay, ΔOD 620 nm; assay type: cell-based, Proteus vulgaris; details: P. vulgaris (-) 5×10^7, tyrocidin 0.825 mg/ml, 37° C.
Method: as §4, §5, §6

[10] = system: K. pneumoniae; experiment: MTT reduction solution assay, ΔOD 540 nm; assay type: cell-based, Klebsiella pneumoniae; details: K. pneumoniae (-) 5×10^7, tyrocidin 0.825 mg/ml, 37° C.
Method: as §4, §5, §6

[11] = system: E. cloacae; experiment: DCIP reduction solution assay, ΔOD 620 nm; assay type: cell-based, Enterobacter cloacae; details: E. cloacae (-) 5×10^7, tyrocidin 0.825 mg/ml, 37° C.
Method: as §4, §5, §6

[12] = system: viable gram-positive and gram-negative bacteria; experiment: Differentiation in RIND XXIX solution assays, overall result; assay type: cell-based; details: gramicidin S 0.1 mg/ml, tyrocidin 3.3 mg/ml
Method: Each test solution contained the following: dispersion of RIND XXIX (25 μl) prepared as described above, glucose (400 μl of 10% aqueous solution), tryptose (400 μl of 10% aqueous solution), trimethyl-1,4-benzoquinone ETA (500 μl of 1.5 mg/ml methanol). Aliquots (200 μl) of the mixture were mixed with solutions of the antibiotics (50 μl). The cell suspensions (50 μl) were then added. The final concentration of gramcidin S and tyrocidin were 0.1 mg/ml and 3.3 mg/ml, respectively. The final cell concentration was about 5×10^7 cells/ml. Cell control solutions contained all reagents except antibiotics. Background controls consisted of both buffer and solution controls. The buffer control contained all reagents except antibiotics and cells. The solution control contained all reagents except cells.
as §3
This example illustrates the practice of this invention to identify a Proteus species in solution. Test solutions and cell control solutions were prepared and tested as described in Example 2 and 3 except that polymixin B was used at 0.01 mg/ml of methanol. The final cell concentration was about 5×10^7 cells/ml.

[13] = system: P. vulgaris; experiment: RIND XXIX reduction solution assay, Δ fluorescence; assay type: cell-based, Proteus vulgaris; details: P. vulgaris (gram -) about 5×10^7 cells/ml, tyrocidin 3.3 mg/ml, 37° C.
Method: as §1, §7, §8
as §3, with “lamp. […]” for “lamp.”

[14] = system: E. cloacae; experiment: RIND XXIX reduction solution assay, Δ fluorescence; assay type: cell-based, Enterobacter cloacae; details: E. cloacae (gram -) about 5×10^7 cells/ml, tyrocidin 3.3 mg/ml, 37° C.
Method: as §1, §7, §8
as §3, with “lamp. […]” for “lamp.”

[15] = system: S. faecalis; experiment: DCIP reduction solution assay, ΔOD 620 nm; assay type: cell-based, Streptococcus faecalis; details: S. faecalis (+) 5×10^7, tyrocidin 0.825 mg/ml, 37° C.
Method: as §4, §5, §6

[16] = system: S. faecalis; experiment: RIND XXIX reduction solution assay, Δ fluorescence; assay type: cell-based, Streptococcus faecalis; details: S. faecalis (gram +) about 5×10^7 cells/ml, tyrocidin 3.3 mg/ml, 37° C.
Method: as §1, §2, §3

[17] = system: S. aureus; experiment: DCIP reduction solution assay, ΔOD 620 nm; assay type: cell-based, Staphylococcus aureus; details: S. aureus (+) 5×10^7, tyrocidin 0.825 mg/ml, 37° C.
Method: as §4, §5, §6

[18] = system: P. aeruginosa; experiment: RIND XXIX reduction solution assay, Δ fluorescence; assay type: cell-based, Pseudomonas aeruginosa; details: P. aeruginosa (gram -) about 5×10^7 cells/ml, tyrocidin 3.3 mg/ml, 37° C.
Method: as §1, §7, §8
as §3, with “lamp. […]” for “lamp.”

[19] = system: K. pneumoniae; experiment: DCIP reduction solution assay, ΔOD 620 nm; assay type: cell-based, Klebsiella pneumoniae; details: K. pneumoniae (-) 5×10^7, tyrocidin 0.825 mg/ml, 37° C.
Method: as §4, §5, §6

[20] = system: S. faecalis; experiment: MTT reduction solution assay, ΔOD 540 nm; assay type: cell-based, Streptococcus faecalis; details: S. faecalis (+) 5×10^7, tyrocidin 0.825 mg/ml, 37° C.
Method: as §4, §5, §6

[21] = system: P. aeruginosa; experiment: MTT reduction solution assay, ΔOD 540 nm; assay type: cell-based, Pseudomonas aeruginosa; details: P. aeruginosa (-) 5×10^7, tyrocidin 0.825 mg/ml, 37° C.
Method: as §4, §5, §6

[22] = system: E. coli; experiment: MTT reduction solution assay, ΔOD 540 nm; assay type: cell-based, Escherichia coli; details: E. coli (-) 5×10^7, tyrocidin 0.825 mg/ml, 37° C.
Method: as §4, §5, §6

[23] = system: S. aureus; experiment: Inhibition of RIND IX reduction by various cyclic polypeptide antibiotics; assay type: cell-based, Staphylococcus aureus; details: Test Method 1 (antibiotic in the test solution), S. aureus about 4.3×10^8 cells/ml, 100 μl of 1 mg/ml antibiotic solution, 30 minutes at 37° C., 635 nm
Method: The following materials were used in this example: stock solutions of RIND IX compound dispersion prepared as described above, glucose (10% in water), trimethyl-1,4-benzoquinone ETA (1.5 mg/ml methanol), and the antibiotics (1 mg/ml in dimethylsulfoxide). S. aureus cells were grown as described above. The final cell concentration in the assay mixture was about 4.3×10^8 cells/ml.
Test solutions were prepared by adding in the order: 1.2 ml of HEPES buffer, 50 μl glucose solution, 1.5 ml of RIND IX dispersion, 100 μl of antibiotic solution, 100 μl of cell suspension and 25 μl of ETA solution. Control solutions were prepared as described in Examples 2 and 3. Optical density readings (OD) were measured at 635 nm at 0 minutes and after incubation at 37° C. for 30 minutes for test and control solutions, and the change in density (ΔOD) was determined. Table VI below lists the results, expressed as corrected percent inhibition of the reduction of the RIND compound. The corrected percent inhibition is calculated by dividing the difference between the ΔOD obtained from the Cell Control without antibiotic and the ΔOD of the test solution, by ΔOD of the Cell Control without antibiotic. All readings were corrected by subtracting readings of the appropriate background Controls.
Solutions containing 2.9 ml HEPES, 50 μl of the antibiotic solution and 100 μl cell solution were incubated at 37° C. for 30 minutes, centrifuged for 10 minutes and decanted. The resulting pellet was then treated with 1.4 ml HEPES, 50 μl glucose solution, 1.5 ml RIND IX dispersion and 25 μl ETA solution, mixed well and the densities recorded as described above in Method 1. The corrected percent inhibition data was calculated as described in Method 1 above.

Q: Which results are given for tyrocidin?
A: Δ Fluorescence (30 Minutes) [1]: 1834; ΔOD, 540 nm after 30 Minutes [2]: 0.778; ΔOD, 620 nm after 30 Minutes [3]: 1.054; Δ Fluorescence (30 Minutes) [4]: > 4000; Δ Fluorescence (30 Minutes) [5]: > 4000; ΔOD, 620 nm after 30 Minutes [6]: 0.983; ΔOD, 540 nm after 30 Minutes [7]: 0.748; ΔOD, 540 nm after 30 Minutes [8]: 0.113; ΔOD, 620 nm after 30 Minutes [9]: 0.941; ΔOD, 540 nm after 30 Minutes [10]: 0.842; ΔOD, 620 nm after 30 Minutes [11]: 0.999; differentiation between viable gram-positive and gram-negative bacteria, in words [12]: can be used with RIND XXIX to differentiate between viable gram-positive and gram-negative bacteria; Δ Fluorescence (30 Minutes) [13]: > 4000; Δ Fluorescence (30 Minutes) [14]: > 4000; ΔOD, 620 nm after 30 Minutes [15]: 0.048; Δ Fluorescence (30 Minutes) [16]: 0880; ΔOD, 620 nm after 30 Minutes [17]: 0.074; Δ Fluorescence (30 Minutes) [18]: > 4000; ΔOD, 620 nm after 30 Minutes [19]: 0.819; ΔOD, 540 nm after 30 Minutes [20]: 0.048; ΔOD, 540 nm after 30 Minutes [21]: 0.692; ΔOD, 540 nm after 30 Minutes [22]: 1.207

Q: With `CN[C@H](CC(C)C)C(=O)N[C@H]1C(=O)N[C@@H](CC(N)=O)C(=O)N[C@H]2C(=O)N[C@H]3C(=O)N[C@H](C(=O)N[C@H](C(=O)O)c4cc(O)cc(O)c4-c4cc3ccc4O)[C@H](O)c3ccc(c(Cl)c3)Oc3cc2cc(c3O[C@@H]2O[C@H](CO)[C@@H](O)[C@H](O)[C@H]2O[C@H]2C[C@](C)(N)[C@H](O)[C@H](C)O2)Oc2ccc(cc2Cl)[C@H]1O` [Vancomycin, vancomycin] as the compound, how does the “Corrected % Inhibition” value [23] read?
A: Its value is “No Inhibition”.

— patent publication US4912036A, “Rapid differentiation of bacteria using cyclic polypeptide antibiotics” (Eastman Kodak Company, priority 1986, dated 1990)
